Laboratory results as given in patent US7635722B1, “Chemical induced intracellular hyperthermia” (priority 1998, dated 2009).
Where two headings read alike, the source gives them in different places.

Columns and labels:
[1] = test system: dimethyl benzo-dithionaphthene derived ascites fibrosarcoma; assay: DNP induced hyperthermia with thermosensitive liposomes, ascites fibrosarcoma (Example 5); type: in vivo, Swiss albino mice
Description: The anticancer drug dacarbazine [5-(3,3′-dimethyl-1-triazino) imidazole-4-carboxamide] was encapsulated in these heat-sensitive liposomes at a concentration of 3 mg/ml. The in vivo efficacy of the thermosensitive, liposome encapsulated dacarbazine was tested on Swiss albino mice transplanted with a dimethyl benzo-dithionaphthene derived ascites fibrosarcoma subjected to DNP induced hyperthermia.
Male, 10-12-week-old, Swiss albino mice were injected with 3×10^6 viable fibrosarcoma cells into the peritoneum. After 15 days the animals were divided into various treatment and control groups receiving intraperitoneal injections of free dacarbazine, DNP alone, DNP+empty liposomes and DNP+liposome encapsulated dacarbazine. DNP induced hyperthermia was recorded with neonatal rectal and 22 ga. hypodermic YSI probes. Temperatures were recorded 30 minutes after a 20 mg/kg intraperitoneal dose of DNP. DNP was administered every day for a total of 5 doses. In all cases the hypodermic, intraperitoneal temperatures were 1° C. higher than the rectal.

[2] = test system: chronically HIV infected HUT-78 cells; assay: in vitro inactivation of chronically HIV infected cells; type: cell-based; conditions: varying concentrations of DNP (FIG. 16)
Description: Clinical assessment and treatment evaluation: HIV and HIV-infected T cells are known to be more sensitive to killing by heat than uninfected lymphocytes. Susceptibility to heat killing is enhanced with increased oxygen free radical production. Acute and chronically infected cells have decreased levels of manganous superoxide dismutase (MnSOD) activity. MnSOD is located exclusively in mitochondria. Mathematical modeling of human HIV production and CD4+ T cell turnover predicts that reducing both free virus and actively infected cells by a minimum of 40% with 1 hour of 42° C. therapeutic hyperthermia every third day will promote recovery of the uninfected T-cell population. Human HIV studies with extracorporeal hyperthermia of 41-42° C. have reported isolated cases of extended patient survival, elimination of detectable virus, and improvement of Kaposi's sarcoma lesions. DNP is known to generate intracellular hyperthermia and oxygen free radicals from the level of the inner mitochondrial membrane. Studies on in vitro inactivation of chronically HIV infected HUT-78 cells by various concentrations of DNP are graphically represented in FIG. 16.

[3] = type: in vivo, human
Description: Placement of physiologic monitoring sensors, intravenous fluids, supplemental oxygen (4 l/min) and optional oral diazepam sedation (5-10 mg) is initiated prior to treatment. Patients receive 0.85 to 1.0 liter of intravenous (IV) 5% dextrose in 0.25 normal saline per hour alternated with 5% dextrose in 0.5 normal saline plus 7.5 to 10 meq of KCl per liter to insure a urinary output of no less than 1 ml/kg/hr. […] Two hours after treatment and 48 hours post-treatment, serum chemistries and hematologic profiles are repeated. A typical patient flow chart is depicted in FIG. 14.
Pretreatment protocol: the patient was given 10 mg diazepam by mouth and dressed into a modified wet suit. The wet suit was cut lengthwise at the arms and legs. Velcro strappings were attached at the cuttings for closure, rapid removal or exposure of the limb(s). After placement of monitoring sensors, they were started on IV fluids of 5% dextrose, 0.5 normal saline with 7 meq K^+, infused at an initial rate of 12 cc/kg/hr. Evaporative heat loss from the head was minimized by a plastic shower cap and towels. A 401AC temperature probe (YSI Incorporated, Yellow Springs, Ohio) was inserted 11 cm. into the rectum. […] A TEEM 100 Metabolic Analysis System (AeroSport Inc., Ann Arbor, Mich.), with a modified face mask and oxygen delivery system (38-40% 02 saturation) for patient comfort and increased accuracy, was attached to the patient. Oxygen consumption (V02), carbon dioxide production (VC02), expired air volume (VE), heart rate (HR), and Kcal of heat produced were measured in 20 second intervals and extrapolated to minute or hourly rates.
Pretreatment protocol: all medications were stopped 2 weeks prior to treatment. The patient refused taking diazepam, placement of a Foley catheter and oxygen face mask. They dressed themself into a dry cold water immersion suit (Stearns, ISS-590I, Universal Adult) designed to prevent heat loss and modified for easy placement of physiologic monitors. Equipment for measurement of heart rate, temperature, carbon dioxide production and Kcal of heat produced were conducted as outlined in Example 1. An oral breathing tube was used to measure V02 from room air. Urine output was measured when the patient voluntarily urinated through a “Texas” catheter (superficial condom tightly fitted around the head of the penis with tubing connected to urine collection bag). The patient was informed that hyperthermia would be administered as tolerated by their stamina and monitored clinical parameters, not to exceed 5 hours, on a daily or every other day basis, for a total of 5 sessions.
Pretreatment protocol: the evening prior treatment the patient was instructed not to eat and dress in cotton undergarments. Approximately 4 hours prior to treatment 2 mg alprazolam was administered by mouth. The patient dressed themself into a dry cold water immersion suit (Stearns, previously described) with headgear. Monitoring sensors, including EKG display, IV fluids and Foley catheter were attached and the suit was zipped closed. The patient opted for oxygen supplementation. The modified face mask was connected to the TEEM 100 metabolic Analysis System for V02 measurements. Data was recorded as previously described.
Pretreatment protocol: the patient was transfused with three units of packed red blood cells. A Foley catheter was inserted on each day of treatment. They were covered in a water soaked blanket containing a polyethylene lining. A shower cap with towels was used to prevent heat loss from the head. Intravenous lines were placed into both arms with 19 gauge intracaths. EKG, heart rate, rectal thermistor, and V02 monitors were attached. Oxygen supplemented facemask and equipment was attached and data monitored as previously described under Example 1.
Pretreatment protocol: the patient was transfused with 2 units of packed red blood cells 48 hours prior to undergoing treatment. Intravenous fluids (Lactated Ringer's solution) were administered at a rate of 100 cc/hour. […]

[4] = Example 3, peak after second dose of 2.0 mg/kg DNP
[5] = Example 3, stable plateau after additional 1.0 mg/kg DNP
[6] = Example 4, DNP 1 mg/kg + 3 x 0.5 mg/kg after mephenteramine

**Q.** Which results are given for `O=[N+]([O-])c1ccc(O)c([N+](=O)[O-])c1` [DNP, 2,4-dinitrophenol]?
**A.** hypodermic, intraperitoneal temperature higher than the rectal ([1]; 30 minutes after 20 mg/kg intraperitoneal DNP): 1 °C; survival curves in comparison to controls ([1]; FIG. 20, DNP 20 mg/kg ip every day, 5 doses): significantly improved; animals remained alive ([1]; sham treated animals all died by 60): ≥ 100 days; killing of chronically HIV infected HUT-78 cells [2]: killing of chronically HIV infected HUT-78 cells; rectal body temperature ([3]; Example 1, DNP 1 + 3 mg/kg IV plus glucagon, maintained about 1 hour): 40 °C; post-treatment toxicity ([3]; Example 1, DNP with glucagon): No immediate or delayed post-treatment toxicity; V02 above baseline ([3]; Example 1, stabilized after initial 1 mg/kg DNP IV): 40%; V02 ([3]; Example 2, 15 minutes after initial 2 mg/kg DNP, baseline 300 cc/min): 340-380 cc/min; V02 ([3]; Example 2, after additional 2 mg/kg DNP infusion): 610-630 cc/min; blood pressure ([3]; Example 2, gradual fall noted at 90 minutes): 100/60; repeat blood work ([3]; Example 2, on days of treatment): no significant hematologic, electrolyte, liver or kidney changes from baseline; tolerability of the procedure ([3]; Example 2, period of 7 hours): without any untoward effects; body core temperature ([3]; Example 2, within 60 minutes, DNP 2 + 2 mg/kg): 39.4 °C; tolerability of the procedure ([3]; Example 3): experienced no problems during the procedure but was noticeably fatigued by hour 3; oral temperature ([3]; Example 3, 6.5 to 7 hours after treatment, with chills and malaise): 38.7 degrees centigrade; V02 per kg ([3]; Example 3, after 1 mg/kg DNP, baseline 3.7): 5.3 cc/kg/min; V02 ([3]; Example 3, after 1 mg/kg DNP, baseline 220 cc/min): 250 cc/min; V02 [3, 4]: 400 cc/min; V02 per kg [3, 4]: 8.8 cc 02/kg/min; V02 [3, 5]: 600 cc/min; V02 per kg [3, 5]: 10.8 cc/kg/min; V02 [3, 6]: 780-820 cc/min; core temperature, maximum [3, 6]: 41.4 °C; plateau temperature ([3]; Example 4, maintained 2 hours and 30 minutes): 41.5 °C; VO2 uptake above baseline ([3]; Example 7, 300 mg capsule of DNP orally, three hours before, immediately prior to emission scan): 40%; VO2 above baseline ([3]; Example 8, DNP 1 + 2 mg/kg IV): 50%; blood pressure and cardiac rates ([3]; Example 9): remained within normal limits; VO2 ([3]; Example 9, 15 minutes after additional 1 mg/kg DNP): 420 cc/minute; VO2 ([3]; Example 9, 20 minutes after 2 mg/kg DNP IV, baseline 250 cc/minute): 340-360 cc/minute; VO2 ([3]; Example 9, 20 minutes after additional 1 mg/kg DNP at hour 3): 450-500 cc/minute; tolerability of the procedure ([3]; Example 9, 6 hours): without any adverse effects; rectal probe temperature increase over baseline, maximum ([3]; Example 9, DNP with methylene blue): 1.3 °C; general toxicity ([3]; Example 9, at any time during treatment): no evidence of general toxicity; VO2 ([3]; Example 9, declined by hour 3): 360-380 cc/minute; fatigue ([3]; Example 10): notably fatigued at hour 5; sweating ([3]; Example 10): sweat profusely; VO2 ([3]; Example 10, 20 minutes after 1 mg/kg DNP, baseline 160 cc/min, interferon-alpha 6 hours before): approximately 210 cc/min; VO2 ([3]; Example 10, 20 minutes after additional 2 mg/kg DNP): 420 cc/min; VO2 ([3]; Example 10, 20 minutes after additional 2.0 mg/kg DNP): 360 cc/min; VO2 ([3]; Example 10, declined two hours after last dose): 280 cc/min; rectal temperature above normal baseline ([3]; Example 10, no efforts to prevent body heat loss): ≤ 1.3 °C; VO2 ([3]; Example 10, peak 20 minutes after second dose of 1 mg/kg DNP): 250 cc/min
